Laboratory results: ChEMBL document CHEMBL5230113, “2-substituted benzothiazoles as antiproliferative agents: Novel insights on structure-activity relationships” (Eur J Med Chem, 2020)
Values after ≈ are worked out from the molar mass of the structure shown.

Columns and labels:
[1] = tested on: PC-3; assay: Cytotoxicity against human PC-3 cells assessed as inhibition of cell growth; format: functional, cell-based
[2] = tested on: HeLa; assay: Antiproliferative activity against human HeLa cells assessed as cell growth inhibition; format: functional, cell-based
[3] = Cytotoxicity against human SPCA1 cells assessed as inhibition of cell growth; format: functional, cell-based
[4] = tested on: SW-620; assay: Cytotoxicity against human SW620 cells assessed as inhibition of cell growth; format: functional, cell-based
[5] = tested on: SiHa; assay: Antiproliferative activity against human SiHa cells assessed as cell growth inhibition; format: functional, cell-based
[6] = tested on: SK-HEP1; assay: Cytotoxicity against human SK-HEP1 cells assessed as cell growth inhibition; format: functional
[7] = tested on: NUGC-3; assay: Cytotoxicity against human NUGC-3 cells assessed as cell growth inhibition; format: functional
[8] = tested on: MDA-MB-231; assay: Cytotoxicity against human MDA-MB-231 cells assessed as cell growth inhibition; format: functional, cell-based
[9] = tested on: MCF7; assay: Cytotoxicity against human MCF7 cells assessed as inhibition of cell growth; format: functional, cell-based
[10] = tested on: HCT-116; assay: Cytotoxicity against human HCT-116 cells assessed as inhibition of cell growth; format: functional, cell-based
[11] = tested on: HepG2; assay: Cytotoxicity against human HepG2 cells assessed as inhibition of cell growth; format: functional, cell-based
[12] = tested on: C6; assay: Cytotoxicity against rat C6 cells assessed as inhibition of cell growth; format: functional, cell-based
[13] = tested on: DU-145; assay: Cytotoxicity against human DU-145 cells assessed as cell growth inhibition; format: functional
[14] = tested on: SMMC-7721; assay: Cytotoxicity against human SMMC-7721 cells assessed as cell growth inhibition; format: functional, cell-based
[15] = tested on: A549; assay: Antiproliferative activity against human A549 cells assessed as cell growth inhibition; format: functional, cell-based
[16] = target: Prostaglandin G/H synthase 1 (Homo sapiens, UniProt P23219); assay: Inhibition of COX-1 (unknown origin)
Chain of Prostaglandin G/H synthase 1 (P23219 whole entry): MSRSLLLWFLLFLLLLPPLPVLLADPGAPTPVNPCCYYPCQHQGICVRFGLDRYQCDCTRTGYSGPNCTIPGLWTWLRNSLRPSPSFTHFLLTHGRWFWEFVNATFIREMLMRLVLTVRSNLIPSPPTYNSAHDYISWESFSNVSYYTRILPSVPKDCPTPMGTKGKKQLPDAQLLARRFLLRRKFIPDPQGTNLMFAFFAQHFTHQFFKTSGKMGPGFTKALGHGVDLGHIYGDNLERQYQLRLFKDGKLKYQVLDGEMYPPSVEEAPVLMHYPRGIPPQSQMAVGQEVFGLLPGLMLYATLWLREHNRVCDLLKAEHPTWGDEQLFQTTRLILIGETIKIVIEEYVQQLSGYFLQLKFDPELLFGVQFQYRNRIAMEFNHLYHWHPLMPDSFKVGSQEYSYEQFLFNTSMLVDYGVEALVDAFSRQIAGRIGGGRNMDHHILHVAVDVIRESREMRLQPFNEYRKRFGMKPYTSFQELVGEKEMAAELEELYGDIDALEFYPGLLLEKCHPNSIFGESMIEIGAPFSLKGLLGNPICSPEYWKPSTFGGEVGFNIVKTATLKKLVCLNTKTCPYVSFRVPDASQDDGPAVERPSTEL

[17] = target: T1, Prostaglandin G/H synthase 2 (Homo sapiens, UniProt P35354); assay: Inhibition of COX-2 (unknown origin)
T1 sequence (P35354 whole entry): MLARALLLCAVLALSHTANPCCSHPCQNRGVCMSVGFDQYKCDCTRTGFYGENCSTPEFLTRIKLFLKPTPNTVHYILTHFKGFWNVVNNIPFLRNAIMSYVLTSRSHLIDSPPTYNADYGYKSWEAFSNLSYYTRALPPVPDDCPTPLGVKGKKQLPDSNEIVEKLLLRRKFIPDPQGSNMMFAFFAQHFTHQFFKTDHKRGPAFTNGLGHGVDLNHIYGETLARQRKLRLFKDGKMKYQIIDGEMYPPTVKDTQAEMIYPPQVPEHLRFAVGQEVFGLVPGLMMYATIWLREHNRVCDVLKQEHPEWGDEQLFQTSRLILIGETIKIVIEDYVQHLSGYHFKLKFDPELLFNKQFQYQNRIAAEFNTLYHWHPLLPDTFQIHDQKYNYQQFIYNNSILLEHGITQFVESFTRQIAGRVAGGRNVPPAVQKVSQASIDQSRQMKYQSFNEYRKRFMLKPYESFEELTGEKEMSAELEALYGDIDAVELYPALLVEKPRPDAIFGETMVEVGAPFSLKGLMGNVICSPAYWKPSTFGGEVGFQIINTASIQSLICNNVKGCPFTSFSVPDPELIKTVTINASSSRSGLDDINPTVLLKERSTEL

[18] = target: Aryl hydrocarbon receptor (Homo sapiens, UniProt P35869); assay: Binding affinity to AhR (unknown origin)
Chain of Aryl hydrocarbon receptor (P35869 whole entry): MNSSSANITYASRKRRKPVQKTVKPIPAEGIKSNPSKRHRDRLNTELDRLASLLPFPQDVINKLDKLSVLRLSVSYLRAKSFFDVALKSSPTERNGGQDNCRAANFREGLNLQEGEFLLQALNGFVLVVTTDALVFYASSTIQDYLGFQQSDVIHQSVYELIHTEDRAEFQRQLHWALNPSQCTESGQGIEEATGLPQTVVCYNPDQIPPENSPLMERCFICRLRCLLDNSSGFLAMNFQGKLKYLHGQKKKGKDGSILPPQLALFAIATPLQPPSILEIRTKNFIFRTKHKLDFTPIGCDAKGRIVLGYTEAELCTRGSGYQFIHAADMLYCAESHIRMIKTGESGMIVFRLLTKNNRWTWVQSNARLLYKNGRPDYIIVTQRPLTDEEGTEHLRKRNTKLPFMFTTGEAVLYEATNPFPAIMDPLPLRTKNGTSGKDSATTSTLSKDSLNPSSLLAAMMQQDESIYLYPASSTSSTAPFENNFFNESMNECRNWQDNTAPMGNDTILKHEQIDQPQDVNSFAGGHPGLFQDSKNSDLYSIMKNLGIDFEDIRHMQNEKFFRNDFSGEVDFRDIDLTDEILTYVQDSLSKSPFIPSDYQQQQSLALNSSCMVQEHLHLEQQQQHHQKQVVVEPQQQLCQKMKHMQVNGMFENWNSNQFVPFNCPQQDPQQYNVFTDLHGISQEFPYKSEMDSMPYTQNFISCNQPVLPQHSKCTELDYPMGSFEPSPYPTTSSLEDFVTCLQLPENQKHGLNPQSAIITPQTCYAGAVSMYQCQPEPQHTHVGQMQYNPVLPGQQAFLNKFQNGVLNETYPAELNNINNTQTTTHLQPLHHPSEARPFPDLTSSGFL

[19] = tested on: MV4-11; assay: Antiproliferative activity against human MV4-11 cells assessed as cell growth inhibition; format: functional, cell-based
[20] = tested on: DB; assay: Antiproliferative activity against human DB cells assessed as cell growth inhibition; format: functional, cell-based
[21] = target: Histone deacetylase 1 (Homo sapiens, UniProt Q13547); assay: Inhibition of HDAC1 (unknown origin)
Chain of Histone deacetylase 1 (Q13547 whole entry): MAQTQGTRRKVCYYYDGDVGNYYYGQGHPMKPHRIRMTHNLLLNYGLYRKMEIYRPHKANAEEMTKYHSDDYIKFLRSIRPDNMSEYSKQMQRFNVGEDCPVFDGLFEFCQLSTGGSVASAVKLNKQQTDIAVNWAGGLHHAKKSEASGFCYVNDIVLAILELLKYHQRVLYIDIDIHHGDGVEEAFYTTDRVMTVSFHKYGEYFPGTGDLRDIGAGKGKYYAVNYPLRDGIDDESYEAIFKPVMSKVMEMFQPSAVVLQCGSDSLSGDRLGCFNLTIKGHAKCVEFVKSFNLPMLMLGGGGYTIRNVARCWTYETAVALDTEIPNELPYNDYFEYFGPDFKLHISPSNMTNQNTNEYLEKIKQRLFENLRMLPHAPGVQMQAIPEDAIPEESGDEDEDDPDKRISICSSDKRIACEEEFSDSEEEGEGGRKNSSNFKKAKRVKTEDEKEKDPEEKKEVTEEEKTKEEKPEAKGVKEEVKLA

[22] = Cytotoxicity against human HCC4018 cells assessed as cell growth inhibition; format: functional, cell-based
[23] = tested on: HCC4017; assay: Cytotoxicity against human HCC4017 cells assessed as cell growth inhibition; format: functional, cell-based
[24] = target: Tyrosine-protein kinase ABL1 (Mus musculus, UniProt P00520); assay: Inhibition of wild type Abl in mouse BaF3 cells; format: cell-based
Chain of Tyrosine-protein kinase ABL1 (Mus musculus, UniProt P00520) (P00520 whole entry): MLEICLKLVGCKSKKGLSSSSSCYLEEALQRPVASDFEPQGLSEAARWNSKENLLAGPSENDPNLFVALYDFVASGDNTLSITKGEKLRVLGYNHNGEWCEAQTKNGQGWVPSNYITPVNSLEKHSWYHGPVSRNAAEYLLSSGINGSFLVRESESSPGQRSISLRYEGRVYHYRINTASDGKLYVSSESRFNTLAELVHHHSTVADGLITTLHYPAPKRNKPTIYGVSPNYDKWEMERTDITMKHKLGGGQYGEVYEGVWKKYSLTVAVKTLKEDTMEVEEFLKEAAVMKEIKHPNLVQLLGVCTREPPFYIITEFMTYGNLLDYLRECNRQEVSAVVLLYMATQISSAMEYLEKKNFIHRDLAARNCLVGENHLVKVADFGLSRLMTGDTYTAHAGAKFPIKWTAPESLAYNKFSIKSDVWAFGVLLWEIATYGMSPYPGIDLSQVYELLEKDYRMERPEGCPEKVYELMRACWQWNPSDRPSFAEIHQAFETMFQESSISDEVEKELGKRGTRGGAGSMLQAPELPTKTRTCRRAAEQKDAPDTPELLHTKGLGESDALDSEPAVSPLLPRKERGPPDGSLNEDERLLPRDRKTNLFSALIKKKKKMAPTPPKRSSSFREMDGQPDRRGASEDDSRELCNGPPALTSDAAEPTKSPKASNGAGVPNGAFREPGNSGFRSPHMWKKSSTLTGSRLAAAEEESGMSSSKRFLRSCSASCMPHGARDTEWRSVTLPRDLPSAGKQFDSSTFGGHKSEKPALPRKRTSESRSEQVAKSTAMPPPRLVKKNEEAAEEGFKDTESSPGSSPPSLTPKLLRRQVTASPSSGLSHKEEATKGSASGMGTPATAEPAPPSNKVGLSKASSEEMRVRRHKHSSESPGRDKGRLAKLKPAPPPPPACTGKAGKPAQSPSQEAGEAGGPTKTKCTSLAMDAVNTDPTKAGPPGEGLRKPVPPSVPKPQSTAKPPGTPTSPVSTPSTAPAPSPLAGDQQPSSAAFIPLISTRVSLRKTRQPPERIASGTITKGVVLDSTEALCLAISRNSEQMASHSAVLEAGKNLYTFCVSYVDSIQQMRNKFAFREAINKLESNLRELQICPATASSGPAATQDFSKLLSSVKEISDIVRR

[25] = target: Tyrosine-protein kinase ABL1 (Mus musculus, UniProt P00520, T315I); assay: Inhibition of Abl T315I mutant in mouse BaF3 cells; format: cell-based
Chain of Tyrosine-protein kinase ABL1 (Mus musculus, UniProt P00520, T315I) (P00520 whole entry T315I): as the sequence (P00520 whole entry) above, with T315I counted along it

[26] = Activation of procaspase-3 (unknown origin); parameters: species or system Homo sapiens
[27] = target: Tubulin; assay: Inhibition of tubulin polymerization (unknown origin); format: protein-complex assay, Homo sapiens
[28] = tested on: MDA-MB-231; assay: Potency index, ratio of PAC-1 IC50 to test compound IC50 for antiproliferative activity against human MDA-MB-231 cells assessed as inhibition of cell growth; format: functional; details: pooled result: one value given for 5 cell lines, strains, targets or settings
[29] = tested on: HT-29; assay: Antiproliferative activity against human HT-29 cells assessed as inhibition of cell growth; format: functional, cell-based
[30] = tested on: NCI-H226; assay: Antiproliferative activity against human NCI-H226 cells assessed as inhibition of cell growth; format: functional, cell-based
[31] = tested on: MKN-45; assay: Antiproliferative activity against human MKN-45 cells assessed as inhibition of cell growth; format: functional, cell-based
[32] = tested on: SK-N-SH; assay: Antiproliferative activity against human SK-N-SH cells assessed as inhibition of cell growth; format: functional, cell-based
[33] = target: Tyrosine-protein kinase ABL1 (Homo sapiens, UniProt P00519); assay: Inhibition of wild type Abl (unknown origin)
[34] = tested on: KM12; assay: Cytotoxicity against human KM12 cells assessed as cell growth inhibition; format: functional
[35] = tested on: K562; assay: Cytotoxicity against human K562 cells; format: functional
[36] = target: Angiopoietin-1 receptor (Homo sapiens, UniProt Q02763); assay: Inhibition of Tie2 (unknown origin)
Chain of Angiopoietin-1 receptor (Q02763 whole entry): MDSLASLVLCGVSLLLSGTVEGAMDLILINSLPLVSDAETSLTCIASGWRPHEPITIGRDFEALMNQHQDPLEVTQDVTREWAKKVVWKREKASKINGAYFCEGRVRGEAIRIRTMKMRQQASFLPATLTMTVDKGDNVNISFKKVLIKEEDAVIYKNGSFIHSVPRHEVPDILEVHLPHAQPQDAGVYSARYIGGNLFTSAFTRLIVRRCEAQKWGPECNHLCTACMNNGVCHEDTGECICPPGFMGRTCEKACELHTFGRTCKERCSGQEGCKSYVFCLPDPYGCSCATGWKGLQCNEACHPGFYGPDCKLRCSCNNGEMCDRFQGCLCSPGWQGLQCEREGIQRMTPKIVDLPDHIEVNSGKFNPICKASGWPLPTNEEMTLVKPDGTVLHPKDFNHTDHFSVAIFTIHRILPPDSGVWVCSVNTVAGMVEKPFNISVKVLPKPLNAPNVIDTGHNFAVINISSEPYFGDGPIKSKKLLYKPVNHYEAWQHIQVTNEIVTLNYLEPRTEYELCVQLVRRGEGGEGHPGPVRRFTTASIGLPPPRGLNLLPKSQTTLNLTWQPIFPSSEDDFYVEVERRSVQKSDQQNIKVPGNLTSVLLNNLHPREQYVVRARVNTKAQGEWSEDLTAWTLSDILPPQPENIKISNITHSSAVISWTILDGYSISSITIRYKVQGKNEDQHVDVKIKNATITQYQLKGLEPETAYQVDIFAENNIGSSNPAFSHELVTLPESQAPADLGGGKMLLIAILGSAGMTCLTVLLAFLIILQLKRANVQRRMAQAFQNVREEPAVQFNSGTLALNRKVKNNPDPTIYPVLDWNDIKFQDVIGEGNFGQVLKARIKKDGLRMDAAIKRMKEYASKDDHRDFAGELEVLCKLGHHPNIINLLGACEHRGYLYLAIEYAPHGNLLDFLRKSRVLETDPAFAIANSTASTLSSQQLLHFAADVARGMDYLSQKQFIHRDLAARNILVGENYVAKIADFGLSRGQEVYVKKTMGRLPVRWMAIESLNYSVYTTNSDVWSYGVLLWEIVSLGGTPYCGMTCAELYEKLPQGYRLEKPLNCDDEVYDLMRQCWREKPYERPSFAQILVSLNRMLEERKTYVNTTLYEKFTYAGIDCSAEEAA

[37] = target: Carbonic anhydrase 9 (Homo sapiens, UniProt Q16790); assay: Inhibition of CA9 (unknown origin)
[38] = Homo sapiens, HepG2, read-out: IC50

O=C(CSc1nc2ccc(NC(=O)CCl)cc2s1)NCc1ccccc1
IC50 [1]: 6580 nM | IC50 [2]: 5130 nM | IC50 [3]: 3890 nM | IC50 [4]: 5120 nM

COc1ccc(Cl)cc1C(=O)Nc1ccc(-c2nc3ccccc3s2)cc1
IC50 [5]: 6130 nM

O=C(Nc1nc2ccc([N+](=O)[O-])cc2s1)c1ccc(C(F)(F)F)cc1
GI50 [6]: 860 nM | GI50 [7]: 860 nM | GI50 [8]: 860 nM

Cc1ccc2nc(N/N=C/c3cccnc3Nc3ccc(Cl)cc3)sc2c1
IC50 [9]: 1030 nM

Nc1ccc2sc(NC(=O)c3sc4ccccc4c3Cl)nc2c1
IC50 [10]: 4000 nM | IC50 [9]: 40 nM

Nc1ccc(-c2nc3ccccc3s2)cc1
IC50 [9]: 0.3 nM

Cc1ccc(Nn2c(SCC(=O)Nc3nc4ccc(F)cc4s3)nc(C)c2C)cc1
IC50 ([11]; hepg2): 31.7 µg/mL | IC50 [12]: 16.3 µg/mL (≈ 37 µM)

O=C(CNS(=O)(=O)c1ccc(Cl)cc1)N1CCN(c2nc3ccccc3s2)CC1
CC50 [13]: 8000 nM

Cc1cc(C)c2sc(NC(=O)c3ccc(C(F)(F)F)cc3)nc2c1
GI50 [6]: 290 nM | GI50 [7]: 290 nM | GI50 [8]: 290 nM

N=C(N)N/N=C/c1cn(-c2nc3ccc(Oc4ccc(F)cc4)cc3s2)nc1-c1ccccc1
IC50 [11, 38]: 3750 nM | IC50 [8]: 2410 nM | IC50 [14]: 2310 nM | IC50 [9]: 2230 nM

CC1=NN(c2ccccc2)C(=O)/C1=N/Nc1cccc(-c2nc3ccccc3s2)c1
IC50 [15]: 12300 nM | IC50 [16]: 9560 nM | IC50 [17]: 100 nM | IC50 [9]: 12300 nM

Clc1cccc(-n2cc(CNc3ccc(-c4nc5ccccc5s4)cc3)nn2)c1
GI50 [2]: 200 nM | GI50 [8]: 200 nM | GI50 [15]: 200 nM

COc1ccc(-c2nc3cc(F)ccc3s2)cc1OC
IC50 [18]: 25 nM

Cc1nc(SCC(=O)Nc2nc3ccc(F)cc3s2)n(Nc2ccc([N+](=O)[O-])cc2)c1C
IC50 ([11]; hepg2): > 500 µg/mL

O=C(CN1CCOCC1)Nc1ccc(-c2nc3ccccc3s2)cc1
IC50 [8]: 8 nM | IC50 [9]: 10 nM

O=C(CNS(=O)(=O)c1cc(Cl)ccc1Cl)N1CCN(c2nc3ccccc3s2)CC1
CC50 ([11]; Homo sapiens, HepG2): 8000 nM | CC50 [13]: 9000 nM

Cc1nc(SCC(=O)Nc2nc3ccccc3s2)n(Nc2ccc([N+](=O)[O-])cc2)c1C
IC50 ([11]; hepg2): 28.7 µg/mL | IC50 [12]: 24.3 µg/mL (≈ 53.5 µM)

Cc1ccc2nc(N/N=C/c3cccnc3Nc3ccccc3)sc2c1
IC50 [9]: 1690 nM

COc1ccc2nc(NC(=O)CSc3nc(C)c(C)n3Nc3ccc([N+](=O)[O-])cc3)sc2c1
IC50 ([11]; hepg2): > 500 µg/mL | IC50 [12]: > 500 µg/mL

COc1cccc2sc(NC(=O)c3ccc(C)cc3)nc12
GI50 [6]: 860 nM | GI50 [7]: 860 nM | GI50 [8]: 860 nM

O=C(Nc1cccc(-c2nc3ccccc3s2)c1)c1cccnc1
IC50 [19]: 7510 nM | IC50 [20]: 15000 nM | IC50 [11, 38]: 15000 nM | IC50 [2]: 15000 nM | IC50 [15]: 5420 nM | IC50 [9]: 15000 nM

O=C(NO)c1ccc(S(=O)(=O)N2CCN(c3nc4ccccc4s3)CC2)cc1
IC50 [21]: 4800 nM | IC50 [22]: 4000 nM | IC50 [23]: 1630 nM

COc1ccccc1-c1ccc2nc(NC(=O)NCCO)sc2c1
IC50 [24]: 89 nM | IC50 [25]: 140 nM

O=C(CN1CCCCC1)Nc1ccc(-c2nc3ccccc3s2)cc1
IC50 [8]: 8 nM | IC50 [9]: 10 nM

C=CCc1cccc(/C=N/NC(=O)CN2CCN(Cc3ccccc3)CC2)c1O [PAC-1]
EC50 [26]: 410 nM

COc1ccccc1-c1ccc2nc(NC(=O)NCCN3CCN(C)CC3)sc2c1
IC50 [24]: 46 nM | IC50 [25]: 78 nM

COc1ccc(CN(C(=O)CSc2nc3ccccc3s2)c2cc(OC)c(OC)c(OC)c2)cc1O
IC50 [27]: 1900 nM

CN(C)Cc1ccc2nc(NC(=O)N/N=C/c3ccc(OCc4ccc(C(F)(F)F)cc4)cc3O)sc2c1
Ratio IC50 [28]: 4.24 | IC50 [29]: 240 nM | IC50 [8]: 240 nM | IC50 [30]: 240 nM | IC50 [31]: 240 nM | IC50 [32]: 240 nM | EC50 [26]: 310 nM

Cc1ccc(N2CCN(CC(=O)Nc3ccc(-c4nc5ccccc5s4)cc3)CC2)cc1
GI50 [2]: 200 nM | GI50 [8]: 200 nM | GI50 [15]: 200 nM

Cc1nc(SCC(=O)Nc2nc3ccc(Cl)cc3s2)n(Nc2ccc([N+](=O)[O-])cc2)c1C
IC50 ([11]; hepg2): > 500 µg/mL

O=C(CN1CCN(c2ccccc2)CC1)Nc1ccc(-c2nc3ccccc3s2)cc1
GI50 [2]: 200 nM | GI50 [8]: 200 nM | GI50 [15]: 200 nM

CCNC(=O)Nc1nc2ccc(-c3ccccc3OC)cc2s1
IC50 [33]: 0.06 nM | IC50 [24]: 3570 nM | IC50 [25]: 2140 nM

Cc1ccc2nc(NC(=O)CSc3nc(C)c(C)n3Nc3ccc([N+](=O)[O-])cc3)sc2c1
IC50 [12]: 15.7 µg/mL (≈ 33.4 µM)

CN1CCN(CC(=O)Nc2ccc(-c3nc4ccccc4s3)cc2)CC1
IC50 [8]: 8 nM | IC50 [9]: 10 nM

O=C(CN1CCN(c2ccccc2F)CC1)Nc1ccc(-c2nc3ccccc3s2)cc1
GI50 [2]: 200 nM | GI50 [8]: 200 nM | GI50 [15]: 200 nM

CCN1CCN(Cc2ccc(NC(=O)Nc3nc4ccc(Oc5ccnc(C(=O)NC)c5)cc4s3)cc2C(F)(F)F)CC1
GI50 [34]: 19 nM | GI50 [35]: 51.4 nM | IC50 [36]: 0.82 nM

Cc1ccc(Nn2c(SCC(=O)Nc3nc4ccc(C)cc4s3)nc(C)c2C)cc1
IC50 ([11]; hepg2): 26.3 µg/mL

Cc1ccc(Nn2c(SCC(=O)Nc3nc4ccc(Cl)cc4s3)nc(C)c2C)cc1
IC50 ([11]; hepg2): 29.3 µg/mL

CC1=NNC(=O)/C1=N/Nc1cccc(-c2nc3ccccc3s2)c1
IC50 [15]: > 25000 nM | IC50 [16]: 9560 nM | IC50 [17]: 100 nM | IC50 [9]: > 25000 nM

CC(=O)N1N=C(C)/C(=N\Nc2cccc(-c3nc4ccccc4s3)c2)C1=O
IC50 [15]: 12300 nM | IC50 [16]: 9560 nM | IC50 [17]: 100 nM | IC50 [9]: 12300 nM

Cc1cc(C)c2sc(NC(=O)c3ccc([N+](=O)[O-])cc3)nc2c1
GI50 [6]: 290 nM | GI50 [7]: 290 nM | GI50 [8]: 290 nM

COc1cccc(-n2cc(CNc3ccc(-c4nc5ccccc5s4)cc3)nn2)c1
GI50 [2]: 200 nM | GI50 [8]: 200 nM | GI50 [15]: 200 nM

Cc1cc(C)c2sc(NC(=O)c3ccc(C#N)cc3)nc2c1
GI50 [6]: 290 nM | GI50 [7]: 290 nM | GI50 [8]: 290 nM

CCCC(Sc1nc2cc(Cl)ccc2s1)C(=O)NS(=O)(=O)c1ccc(OC)cc1 (stereo unspecified)
IC50 [37]: 490 nM
